Literature values, collected in US5211943A, “Pharmaceutical preparation for administration by percutaneous absorption and a method for their manufacture” (Chugai Seiyaku Kabushili Kaisha, priority 1986, dated 1993).

What was measured:
[1] = test system: coronary vessels; details: Japanese Patent Publication 58-17463
[2] = high temperature or high humidity, or in solution; Iyakuhin Kenkyu vol. 14, 1983
[3] = oral; rapid increase of blood level

## O=C(NCCO[N+](=O)[O-])c1cccnc1 [Nicorandil, N-(2-hydroxyethyl)nicotinamide nitrate]
[1]
  effect on coronary vessels, coronary veins and heart: acts to dilate the coronary vessels and to inhibit contractions of the coronary veins, without much effect on the blood flow through the heart or on heart function
[2]
  stability: relatively unstable
[3]
  side effects when given orally: orthostatic hypotension and headache
